The values below come from publication PMC2854136 (Biochemistry, 2009).

“And” between values parts separate entries of the source, which are not always exact repeats. Identical values can stand only once. Like-named read-outs stand apart in the source and are kept apart here.

Assay [1] concerns the target T1, Escherichia coli glutaminyl-tRNA synthetase (GlnRS) (Escherichia coli, UniProt P00962). As to conditions: wild-type GlnRS, cited from earlier work.
Target sequence in this assay (P00962 2-554): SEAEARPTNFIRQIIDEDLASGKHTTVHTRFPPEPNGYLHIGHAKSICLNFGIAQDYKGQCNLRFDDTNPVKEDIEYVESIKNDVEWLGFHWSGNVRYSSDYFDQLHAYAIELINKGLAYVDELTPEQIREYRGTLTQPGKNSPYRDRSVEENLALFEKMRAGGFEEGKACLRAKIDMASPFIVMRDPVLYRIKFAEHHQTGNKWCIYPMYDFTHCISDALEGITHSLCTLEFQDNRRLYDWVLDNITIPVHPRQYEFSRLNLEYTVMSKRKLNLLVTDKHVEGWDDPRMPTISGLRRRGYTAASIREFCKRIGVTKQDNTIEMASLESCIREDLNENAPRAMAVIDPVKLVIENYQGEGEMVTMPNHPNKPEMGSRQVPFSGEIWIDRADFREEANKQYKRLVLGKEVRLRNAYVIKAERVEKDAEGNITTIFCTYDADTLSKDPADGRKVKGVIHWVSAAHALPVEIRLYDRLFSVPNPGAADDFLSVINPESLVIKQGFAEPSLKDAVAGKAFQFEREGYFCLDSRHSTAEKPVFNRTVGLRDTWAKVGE
Assay [2] has as its target T1, Escherichia coli glutaminyl-tRNA synthetase (GlnRS). The class given is biochemical.
Target sequence in this assay (P00962 2-554): as above
Assay [3] has the same target. Put plainly: Misacylation of tRNA^Gln with glutamate. In kind it is biochemical. As to conditions: very high glutamate concentrations, single-turnover conditions.
Target sequence in this assay (P00962 whole entry): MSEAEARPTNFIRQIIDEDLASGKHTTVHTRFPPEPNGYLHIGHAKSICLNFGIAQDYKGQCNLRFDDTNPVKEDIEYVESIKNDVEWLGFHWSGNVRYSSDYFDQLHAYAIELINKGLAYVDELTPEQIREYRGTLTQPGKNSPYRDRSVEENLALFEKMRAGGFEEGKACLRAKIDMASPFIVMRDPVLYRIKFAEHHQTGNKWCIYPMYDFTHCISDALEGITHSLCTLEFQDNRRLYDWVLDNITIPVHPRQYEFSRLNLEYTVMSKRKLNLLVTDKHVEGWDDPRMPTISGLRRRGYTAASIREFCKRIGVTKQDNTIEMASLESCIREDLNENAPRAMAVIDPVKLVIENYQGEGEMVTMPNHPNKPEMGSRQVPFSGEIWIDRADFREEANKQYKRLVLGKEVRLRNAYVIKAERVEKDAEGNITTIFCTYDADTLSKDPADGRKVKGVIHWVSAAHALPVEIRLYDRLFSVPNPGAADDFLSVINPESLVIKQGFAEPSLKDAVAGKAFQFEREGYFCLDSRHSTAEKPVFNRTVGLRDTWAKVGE
The target is the same in assay [4]. In kind it is biochemical. As to conditions: 3′-dATP versus ATP.
Target sequence in this assay (P00962 2-554): as the sequence (P00962 2-554) above

In the case of `Nc1ncnc2c1ncn2[C@@H]1O[C@H](COP(=O)(O)OP(=O)(O)OP(=O)(O)O)[C@@H](O)[C@H]1O` [ATP], in assay [1] (read-out: Km (ATP/3′-dATP), Km for ATP), the Km is 200 ± 20 µM. In assay [1] (ATP-mediated glutaminylation, 37 °C), the kcat – broadly, the maximal rate divided by the concentration of active sites – was 3.2 ± 0.5 s⁻¹.
On to 3′-dATP, for which, in assay [2] (3′-dATP versus ATP), the “fold diminution of kcat from wild-type (ATP) reaction” value is 70 fold and 71 fold; the “fold elevation of Km (ATP/3′-dATP) from wild-type (ATP) reaction” value is 2 fold; the “fold elevation of Km (GLN) from wild-type (ATP) reaction” value is recorded as 16 fold. The Km in assay [2] (read-out: Km (ATP/3′-dATP), wild-type GlnRS, Km for 3′-dATP) turned out to be 410 ± 30 µM. For the same molecule, the kcat in assay [2] (wild-type GlnRS, 3′-dATP in place of ATP, 50 nM enzyme, 12.5 μM tRNA, 37 °C) came out at 0.045 ± 0.02 s⁻¹. The “misacylation of tRNA^Gln with glutamate using 3′-dATP” value in assay [3] is “unable to detect any reaction”. In addition, the “fold diminution of kobs from wild-type (ATP) reaction” value in assay [4] is on record as 47 fold.
